Results as given in US11034735B2, “Hybrid peptide, set of hybrid peptides, composition, uses of the hybrid peptide, method for inducing an immune response and kits” (priority 2017, dated 2021).

What was measured:
calf serum [1] = test: Western blotting, synthetic peptides with calf serum; format: in vivo; settings: label = antigen on blot
From the text: (§1) The immunogenicity of the synthetic peptides was verified by immunizing a previously tested calf with negative results for Anaplasma marginale, Babesia bovis and Babesia bigemina by serology and PCR. For inoculations, a peptide pool (SEQ ID NO: 20, SEQ ID NO: 21, SEQ ID NO: 23, SEQ ID NO: 25 and SEQ ID NO: 26) was emulsified in Freund's complete adjuvant (Sigma) and, inoculated intramuscularly in the quadriceps. Two further immunizations, on the 14th and 28th day after inoculation, were performed using incomplete Freund's adjuvant (Sigma). Each inoculation was done using 100 μg/mL of each peptide. Blood samples were collected by jugular puncture on the 10th day after the last immunization and the sera obtained were stored at −20° C. until evaluated by Dot-ELISA and Western-blotting assays.
(§2) Samples of synthetic peptides were analyzed by Western blotting. To this end, initially, the samples were submitted to polyacrylamide gel electrophoresis under denaturing conditions, according to the technique recommended by Laemmli (1970). Based on the sample volume 2× concentrated sample buffer (250 mM Tris-HCl pH 6.8, 40% glycerol, 8% SDS, 20% β-mercaptoethanol and 0.008% bromophenol blue) was added. The samples were homogenized, incubated for 5 minutes at 100° C. and applied to the gel. The separation gel was prepared at a concentration of 12% polyacrylamide in buffer (1.875 M Tris, pH 8.8 and 1% SDS) and 5% polyacrylamide for buffer packaging gel (1.875 M Tris, pH 6.8 and 0.5% SDS). Electrophoresis was performed in Tris-Glycine Running Buffer (50 mM Tris, pH 8.6, 1.92 M Glycine and 1% SDS) at 100 V for up to 3 hours and 30 minutes at 0° C. in the Mini-Protean II system (Bio-Rad).
Synthetic peptides processed on the polyacrylamide gel (SDS-PAGE) were transferred to the nitrocellulose membrane for analysis by Wester blot (TOWBIN et al., 1979). The nitrocellulose membrane (Merck) was previously incubated in ice cold transfer buffer (0.58% Tris Base pH 8.3, 20% methanol and 0.29% glycine). For this, the membrane was placed in the “Mini Trans-Blot” (Bio-Rad) electrotransfer system containing the same buffer and the transfer was performed at 100 V for 90 minutes. The membrane was incubated in TBS-Tween (10 mM Tris-HCl pH 7.5; 150 mM NaCl, 0.05% Tween-20) plus 5% skim milk powder for 12 hours at 4° C. under low agitation, for saturation of non-specific binding sites. The membrane was then incubated with each serum from each mouse alone or incubated with calf serum for 2 hours at room temperature under slow stirring. It was then subjected to three consecutive 10-minute washes with the same solution under slow agitation. […]

serum of BALB/c mice = test: Dot-ELISA, synthetic peptides with serum of immunized BALB/c mice; format: in vivo; set-up: key to Peptide Reactivity, Mice serum inoculated with isolated peptides 1 / Peptide Reactivity, Mice serum inoculated with isolated peptides 2 / Peptide Reactivity, Mice serum inoculated with isolated peptides 3 / Peptide Reactivity, Mice serum inoculated with pool / Peptide Reactivity, Mice serum inoculated with Saline (Negative Control) / Reaction with pool of peptides, Mouse 1 serum / Reaction with pool of peptides, Mouse 2 serum / Reaction with pool of peptides, Mouse 3 serum: — = Did not react; X = Reacted; settings: for Peptide Reactivity, Mice serum inoculated with pool / Peptide Reactivity, Mice serum inoculated with isolated peptides 1 / Peptide Reactivity, Mice serum inoculated with isolated peptides 2 / Peptide Reactivity, Mice serum inoculated with isolated peptides 3 / Peptide Reactivity, Mice serum inoculated with Saline (Negative Control) / Reaction with pool of peptides, Mouse 1 serum / Reaction with pool of peptides, Mouse 2 serum / Reaction with pool of peptides, Mouse 3 serum: Dot-ELISA; for Peptide Reactivity, Mice serum inoculated with pool / Peptide Reactivity, Mice serum inoculated with isolated peptides 1 / Peptide Reactivity, Mice serum inoculated with isolated peptides 2 / Peptide Reactivity, Mice serum inoculated with isolated peptides 3 / Peptide Reactivity, Mice serum inoculated with Saline (Negative Control) / Dot-ELISA reaction of mouse sera inoculated with the peptide pool / Dot-ELISA reaction of sera from mice inoculated with hybrid peptides alone: peptide as antigen; for Peptide Reactivity, Mice serum inoculated with pool: mice inoculated with pool of all 8 hybrid peptides; for Peptide Reactivity, Mice serum inoculated with isolated peptides 1: serum of mouse 1 inoculated with the same isolated peptide; for Peptide Reactivity, Mice serum inoculated with isolated peptides 1 / Peptide Reactivity, Mice serum inoculated with isolated peptides 2 / Peptide Reactivity, Mice serum inoculated with isolated peptides 3: serum 1:25; for Peptide Reactivity, Mice serum inoculated with isolated peptides 2: serum of mouse 2 inoculated with the same isolated peptide; for Peptide Reactivity, Mice serum inoculated with isolated peptides 3: serum of mouse 3 inoculated with the same isolated peptide; for Peptide Reactivity, Mice serum inoculated with Saline (Negative Control): serum of saline-inoculated mice; for Reaction with pool of peptides, Mouse 1 serum / Reaction with pool of peptides, Mouse 2 serum / Reaction with pool of peptides, Mouse 3 serum: pool of peptides as antigen; for Reaction with pool of peptides, Mouse 1 serum: serum of mouse 1 inoculated with the labelled peptide; for Reaction with pool of peptides, Mouse 2 serum: serum of mouse 2 inoculated with the labelled peptide; for Reaction with pool of peptides, Mouse 3 serum: serum of mouse 3 inoculated with the labelled peptide; for Dot-ELISA reaction of mouse sera inoculated with the peptide pool: pool of all 8 hybrid peptides
Experimental: (§3) The immunogenicity of each peptide was checked immunizing BALB/c mice, approximately six weeks old, with […] of protein (Machado et al., 1994). The mice were divided into groups of three animals each. The groups were: P28, P41, P42, P44, P50, P51, P53, P54, Pool (mice inoculated with a pool of peptides, in the case with all 8 hybrid peptides) and negative control group. For inoculations, the peptides were emulsified in Freund's complete adjuvant (Sigma) and inoculated intramuscularly in the quadriceps. Two further immunizations, on the 14th and 28th day after inoculation, were performed using incomplete Freund's adjuvant (Sigma). Each inoculation was carried out using 10 μg/mL of each peptide. Negative control mice were inoculated with sterile saline in place of the peptides and also emulsified in adjuvant. Blood samples were collected by intracardiac puncture on the 10th day after the last immunization and the sera obtained were stored at −20° C. until evaluated by Dot-ELISA and Western-blotting assays.
(§4) Synthetic peptides were used as antigen in the Dot-ELISA technique to verify their ability to react with specific antibodies present in the serum of BALB/c mice, as well as in calf serum, all immunized. The technique was performed as described by Machado et al. (1994), with minor modifications. Briefly, small nitrocellulose discs were cut using a paper punch and each disc arranged in a flat bottom 24-well culture plate well. 4 μg/mL of each synthetic peptide alone, as well as the peptide pool, were deposited on each disc. The discs were dried at room temperature and then blocked for 12 hours at room temperature with […] TBS buffer (0.1 M Tris, 0.1 M NaCl and 0.5% Tween 20; TBS-Tween 20), plus 5% skim milk powder. Test sera were diluted 1:25 (mice and calf) in TBS-Tween 20 containing 5% skim milk powder and incubated for 120 minutes at room temperature and under constant stirring. Then the discs were subjected to two washes with TBS-Tween 20 plus 5% skim milk powder and one wash with TBS-Tween 20 (5 min interval between each wash). To each mouse serum disc was added the alkaline phosphate-coupled anti-mouse conjugate (anti-mouse IgG goat IgG, Sigma A-3562) diluted 1:30,000 in TBS-Tween 20 plus 5% of skim milk powder. To calf serum-containing discs, it was added alkaline phosphate-coupled anti-bovine conjugate (anti-cattle IgG rabbit IgG, Sigma A-0705) diluted 1:30,000 in TBS-Tween 20, plus 5% skim milk powder. After one hour incubation with the appropriate conjugates, washes were followed as in the previous step.

calf serum [2] = test: Dot-ELISA, synthetic peptides with serum of calf immunized with peptide pool; format: in vivo; set-up: key to Peptide Reactivity, Calf serum inoculated with pool: — = Did not react; X = Reacted; settings: for Peptide Reactivity, Calf serum inoculated with pool: Dot-ELISA, peptide as antigen, calf inoculated with pool SEQ ID NO: 20, 21, 23, 25, 26; for Dot-ELISA reaction of calf serum inoculated with the peptide pool with the antigen: label = antigen on disc
From the text: as §1, §4

[3] = test system: bovine serum serologically positive / negative / vaccinated for A. marginale; test: Dot-ELISA, synthetic peptides with sera of cattle serologically positive, negative or vaccinated for A. marginale; format: binding; settings: peptide as antigen
Experimental: as §4

mouse serum = test: Western blotting, synthetic peptides with serum of inoculated mice; settings: in vivo
Experimental: as §3, §2
Synthetic peptides processed on the polyacrylamide gel (SDS-PAGE) were transferred to the nitrocellulose membrane for analysis by Wester blot (TOWBIN et al., 1979). The nitrocellulose membrane (Merck) was previously incubated in ice cold transfer buffer (0.58% Tris Base pH 8.3, 20% methanol and 0.29% glycine). For this, the membrane was placed in the “Mini Trans-Blot” (Bio-Rad) electrotransfer system containing the same buffer and the transfer was performed at 100 V for 90 minutes. The membrane was incubated in TBS-Tween (10 mM Tris-HCl pH 7.5; 150 mM NaCl, 0.05% Tween-20) plus 5% skim milk powder for 12 hours at 4° C. under low agitation, for saturation of non-specific binding sites. The membrane was then incubated with each serum from each mouse alone or incubated with calf serum for 2 hours at room temperature under slow stirring. […]

Row | Sequence | Western blotting reactivity of calf serum inoculated with the peptide pool (calf serum [1]) | Peptide Reactivity, Mice serum inoculated with pool (serum of BALB/c mice) | Peptide Reactivity, Mice serum inoculated with isolated peptides 1 (serum of BALB/c mice) | Peptide Reactivity, Mice serum inoculated with isolated peptides 2 (serum of BALB/c mice) | Peptide Reactivity, Mice serum inoculated with isolated peptides 3 (serum of BALB/c mice) | Peptide Reactivity, Mice serum inoculated with Saline (Negative Control) (serum of BALB/c mice) | Reaction with pool of peptides, Mouse 1 serum (serum of BALB/c mice) | Reaction with pool of peptides, Mouse 2 serum (serum of BALB/c mice) | Reaction with pool of peptides, Mouse 3 serum (serum of BALB/c mice) | Peptide Reactivity, Calf serum inoculated with pool (calf serum [2]) | Dot-ELISA reaction of calf serum inoculated with the peptide pool with the antigen (calf serum [2]) | Dot-ELISA reaction of mouse sera inoculated with the peptide pool (serum of BALB/c mice) | Reaction of sera from serologically positive cattle for A. marginale with synthetic peptide [3] | Reaction of sera from vaccinated cattle for A. marginale with synthetic peptide [3] | Dot-ELISA reaction of sera from mice inoculated with hybrid peptides alone (serum of BALB/c mice) | Western blotting reaction of serum of mice inoculated with synthetic peptide (mouse serum)
1 | SSVSSQSDQASTSSQLGGGGAMGDSVHWKVKPVDNKLFIMP (Synthetic hybrid peptide) [P41] | showed reactivity | — | — | — | — | — | — | — | — | X | reacted |  |  |  |  | 
2 | SKVASVEYILAARGGGGQVDRLANALGK (Synthetic hybrid peptide) [P28] |  | — | — | — | — | — | — | X | — | — |  | reacted | reacted | reacted |  | 
3 | GASTDDAAAAAKIVAMAYGRGGGGGASSVDALTATKLVAAALGH (Synthetic hybrid peptide) [P44] | showed reactivity | — | X | X | X | — | — | — | — | X | reacted |  | reacted | reacted | reacted | reacted
4 | LAESTEGNLEEVWILGKGGGGFSESMKALIKKYVDTSKPTIYVDQGTVMKV (Synthetic hybrid peptide) [P51] | showed reactivity | X | — | X | X | — | — | X | — | X | reacted | reacted |  |  | reacted | 
5 | SECVSLQPTDSSSASGQQQEGGGGLQGHMIDAVLETAINSDIPGVLRAIVSRDV (Synthetic hybrid peptide) [P54] |  | X | X | X | X | — | — | X | — | — |  | reacted | reacted |  | reacted | reacted
6 | SKVASVEYILAARGGGGQVDRLANALGKGGGGAMGDSVHWKVKPVDNKLFIMP (Synthetic hybrid peptide) [P53] | showed reactivity | X | — | — | — | — | X | X | X | X | reacted | reacted | reacted |  |  | reacted
